A word on the EC50: it is the concentration needed to bring the measured effect to its halfway point. One may read the CC50 as the concentration giving 50% cytotoxicity. Low values mean harm at low concentration, high ones better tolerance by the cells. In general, IC50 refers to the concentration at which inhibition is half-maximal.

Like-named read-outs stand apart in the source and are kept apart here.

In data set [1] the test system is IIIB strain of HIV-1. Nature of the data set: Anti-HIV-1 activity: protection of infected MT-2 cells, MTT colorimetric method. Format: cell-based. Particulars: for fold lower potency (higher EC50) than the corresponding DMA ether: Table 2b compounds; for EC50: read-out: EC50.
Data set [2] deals with MT-2 human T-cells. The experiment in a line: Cytotoxicity: inhibition of MT-2 cell growth. Particulars: for IC50: cytotoxicity, read-out: IC50. Format: cell-based. From the text:
(§1) The preparation of the analogues 4a-h involved the reaction between 2-bromothiazole 1 with the corresponding 5-amino-2-R-phenol 2, followed by reaction with 4-bromo-2-methyl-2-butene in presence of Cs2CO3 as a base (Scheme 1; see Table 1 for antiviral activities (EC50) and cytotoxicities (IC50) of these compounds, as determined using human MT-2 cells infected with IIIB strain of HIV-1).
(§2) See, Ruiz-Caro, supra. and Lin, et al., Biochem. Pharmacol. 1994, 47, 171-174.

The nature of data set [3]: Cytotoxicity: inhibition of MT-2 cell growth. As to conditions: human, MT-2 T-cells; Table 2b; MT-2 cells. Format: cell-based, human.
Text: as §1, §2

[4] abbreviates: Table 2b, derivatives of pyrimidine 11, NA for EC50 > CC50.
Setting [5] is: Table 3, thiazoles 18-23, N/A read as no activity.
Where [6] appears, read: Human immunodeficiency virus 1, IIIB, MT2, Table 1a, heteroaryl derivatives, N/A read as no activity.
[7] abbreviates: Homo sapiens, MT2, Table 1a, MT-2 cells.
[8] abbreviates: Human immunodeficiency virus 1, IIIB, MT2.
[9] abbreviates: Table 1B, for 50% inhibition of MT-2 cell growth, triplicate samples.
[10] abbreviates: Homo sapiens, MT2, Table of bicyclic-heteroaryl phenyl amines, MT-2 cell assays.
Where [11] appears, read: Human immunodeficiency virus 1, IIIB, MT2, Table of bicyclic-heteroaryl phenyl amines, MT-2 cell assays.
Where [12] appears, read: Table of bicyclic-heteroaryl phenyl amines, MT-2 cell assays.

In the case of `C/C=C/COc1cc(Nc2nccc(OC)n2)ccc1Cl` [Compound 11c], the “fold lower potency (higher EC50) than the corresponding DMA ether” value in data set [1] is recorded as “ca. 10 fold”. Besides, the EC50 in data set [1] (setting [4]) is 89 nM. Besides, in data set [2] (Table 2b, MT-2 cells), half-maximal cytotoxicity (CC50) was put at 17000 nM.

As for `COc1ccnc(Nc2ccc(Cl)c(Oc3ccccc3)c2)n1` [Compound 11d], the “fold lower potency (higher EC50) than the corresponding DMA ether” value in data set [1] is “ca. 100 fold”. Moreover, in data set [1] (setting [4]), the EC50 is 2500 nM. In data set [2] (Table 2b, MT-2 cells), the half-maximal cytotoxic concentration (CC50) was found to be 38000 nM.

`CC/C(C)=C\COc1cc(Nc2nccs2)ccc1Cl` [Compound 18d, (E/Z)-N-(4-chloro-3-(3-methylpent-2-enyloxy)phenyl)thiazol-2-amine]: the EC50 in data set [1] (setting [5]) was 1000 nM. Moreover, in data set [2] (Table 3, MT-2 cells), the IC50 worked out at 18000 nM.

Turning to `CC(C)=CCOc1cc(Nc2ncccn2)ccc1C` [Compound 39b, N-(4-Methyl-3-(3-methylbut-2-enyloxy)phenyl)pyrimidin-2-amine], the EC50 in data set [1] (setting [6]) stood at 2800 nM. Further, in data set [2] (setting [7]), the 50% inhibitory concentration (IC50) amounted to 78000 nM.

Turning to `CC(C)=CCOc1cc(Nc2ncccn2)ccc1Cl` [Compound 39d, N-(4-Chloro-3-(3-methylbut-2-enyloxy)phenyl)pyrimidin-2-amine], the EC50 in data set [1] (setting [6]) came to 200 nM. The CC50 in data set [3] was found to be 2500 nM. In addition, the IC50 in data set [2] (setting [7]) is 2500 nM; in data set [2] (Homo sapiens, MT2, Table 2a, MT-2 cells), less than 200 nM.

Regarding `CC(C)=CCOc1cc(Nc2ncccn2)ccc1C#N` [Compound 39h, N-(4-Cyano-3-(3-methylbut-2-enyloxy)phenyl)pyrimidin-2-amine], the EC50 in data set [1] (setting [8]) was determined as 17 nM. Further, the IC50 in data set [2] (setting [7]) was less than 200 nM. The CC50 in data set [2] (setting [9]) is 36 nM.

Consider `CC(C)=CCOc1cc(Nc2nccc(N)n2)ccc1C` [Compound 40b, N^2-(4-Methyl-3-(3-methylbut-2-enyloxy)phenyl)pyrimidin-2,4-diamine], for which the EC50 in data set [1] (setting [6]) worked out at 350 nM. For the same compound, in data set [2] (setting [7]), the IC50 came to 6500 nM.

Take `CC(C)=CCOc1cc(Nc2nccc(N)n2)ccc1Cl` [Compound 40d, N^2-(4-Chloro-3-(3-methylbut-2-enyloxy)phenyl)pyrimidin-2,4-diamine]: in data set [1] (setting [6]), the EC50 stood at 75 nM. Further, the IC50 in data set [2] (setting [7]) was greater than 1000 nM.

Take `CC(C)=CCOc1cc(Nc2nccc(C)n2)ccc1Cl` [Compound 41d, N-(4-Chloro-3-(3-methylbut-2-enyloxy)phenyl)-4-methylpyrimidin-2-amine]: in data set [1] (setting [8]), the EC50 was 39 nM. The IC50 in data set [2] (setting [7]) was less than 200 nM. In data set [2] (setting [9]), the CC50 was determined as 150 nM.

With `COc1ccnc(Nc2ccc(C)c(OCC=C(C)C)c2)n1` [Compound 42b, 4-Methoxy-N-(4-methyl-3-(3-methylbut-2-enyloxy)phenyl)pyrimidin-2-amine], the EC50 in data set [1] (setting [6]) was determined as 320 nM. Besides, the half-maximal inhibitory concentration (IC50) in data set [2] (setting [7]) came to 41000 nM.

Regarding `COc1ccnc(Nc2ccc(Cl)c(OCC=C(C)C)c2)n1` [Compound 42d, N-(4-Chloro-3-(3-methylbut-2-enyloxy)phenyl)-4-methoxypyrimidin-2-amine], the EC50 in data set [1] (setting [6]) came out at 10 nM. Moreover, the IC50 in data set [2] (setting [7]) is 9000 nM.

Turning to `CSc1ccnc(Nc2ccc(Cl)c(OCC=C(C)C)c2)n1` [Compound 48], the EC50 in data set [1] (Table 1a, heteroaryl derivatives, N/A read as no activity) turned out to be 180 nM. The 50% inhibitory concentration (IC50) in data set [2] (Table 1a, MT-2 cells) was 2800 nM.

Turning to `Cc1nccc(C(F)(F)F)n1` [Compound 49], the EC50 in data set [1] (setting [6]) turned out to be 65 nM. The half-inhibitory concentration (IC50) in data set [2] (setting [7]) was determined as 2500 nM.

As to `O=C1Nc2ccc(Cl)cc2[C@@](C#CC2CC2)(C(F)(F)F)O1` [Efavirenz, efavirenz, reference compound], the EC50 in data set [1] (setting [8]) came out at 2 nM. For the same compound, the IC50 in data set [2] (setting [10]) was greater than 100 nM. Further, the cytotoxic concentration (CC50) in data set [2] (setting [9]) was greater than 100 nM.

`CC(C)=CCOc1cc(Nc2nccc3occc23)ccc1Cl` [compound 54]: the EC50 in data set [1] (setting [11]) turned out to be 6 nM. Further, the IC50 in data set [2] (setting [10]) came to 25000 nM.

As to `CC(C)=CCOc1cc(Nc2nccc3cc[nH]c23)ccc1Cl` [compound 58], the EC50 in data set [1] (setting [11]) is 900 nM. In addition, the IC50 in data set [2] (setting [10]) is 9200 nM.

Consider `CC(C)=CCOc1cc(Nc2nccc3cccn23)ccc1Cl` [compound 59], for which the EC50 in data set [1] (setting [11]) is 130 nM. Besides, in data set [2] (setting [10]), the IC50 came out at 17000 nM.

As to `CC(C)=CCOc1cc(Nc2nccn3cccc23)ccc1Cl` [compound 60], in data set [1] (setting [11]), the EC50 came out at 19 nM. In data set [2] (setting [10]), the 50% inhibitory concentration (IC50) is 20000 nM.

As to `CC(C)=CCOc1cc(Nc2ncc3ccoc3n2)ccc1Cl` [compound 61], the EC50 in data set [1] (setting [11]) stood at 130 nM. Also, the IC50 in data set [2] (setting [10]) amounted to 20000 nM.

With `CC(C)=CCOc1cc(Nc2nccc3ccoc23)ccc1Cl` [furopyridine 56a], the EC50 in data set [1] (setting [12]) was found to be 80 nM. For the same compound, in data set [2] (setting [12]), the IC50 amounted to 21000 nM.

For `CC(C)=CCOc1cc(Nc2nccc3ccoc23)ccc1C#N` [furopyridine 56b], the EC50 in data set [1] (setting [12]) amounted to 11 nM. Further, the IC50 in data set [2] (setting [12]) amounted to 91 nM.

As to `CC(C)=CCOc1cc(Nc2nccc3ccccc23)ccc1Cl` [isoquinoline 62a], in data set [1] (setting [12]), the EC50 turned out to be 34 nM. In data set [2] (setting [12]), the IC50 was 19000 nM.

Take `CC(C)=CCOc1cc(Nc2nccc3ccccc23)ccc1C#N` [isoquinoline 62b]: the EC50 in data set [1] (setting [12]) came to 3 nM. Moreover, in data set [2] (setting [12]), the IC50 turned out to be 4400 nM.

For the compound “N-(4-Chloro-3-(cyclopentenyloxy)phenyl)thiazol-2-amine [Compound 20d]”, the EC50 in data set [1] (setting [5]) is 5000 nM. Also, in data set [2] (Table 3, MT-2 cells), the IC50 stood at 15000 nM.

Values taken from US9018209B2, “Compounds and methods for the treatment of viruses and cancer” (Yale University, priority 2005, dated 2015).
